Test results published in ChEMBL document CHEMBL1149991, “Benzofuran based angiotensin II antagonists related to GR117289: enhancement of potency in vitro and oral activity” (Bioorg Med Chem Lett, 1993).

Each compound was assayed against T1, Type-1 angiotensin II receptor (Oryctolagus cuniculus) (UniProt P34976) (assay: In vitro for its antagonistic activity against angiotensin II type 1 receptor in Rabbit Aorta).
T1 sequence (whole entry): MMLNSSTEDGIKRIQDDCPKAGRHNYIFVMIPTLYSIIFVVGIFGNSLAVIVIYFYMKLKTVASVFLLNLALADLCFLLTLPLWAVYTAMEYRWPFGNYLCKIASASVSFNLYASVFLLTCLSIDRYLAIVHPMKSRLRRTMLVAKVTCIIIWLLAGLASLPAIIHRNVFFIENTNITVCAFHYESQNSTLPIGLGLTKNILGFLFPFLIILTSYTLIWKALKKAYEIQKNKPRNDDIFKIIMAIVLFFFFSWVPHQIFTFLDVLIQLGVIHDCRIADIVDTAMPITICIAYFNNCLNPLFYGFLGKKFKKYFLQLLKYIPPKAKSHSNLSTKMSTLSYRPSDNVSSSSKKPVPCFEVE
Type: functional, tissue-based

First: CCCCc1nc(Cl)c(C(=O)NC)n1Cc1ccc2oc(-c3ccccc3-c3nn[nH]n3)c(Br)c2c1
Second: CCCCc1nc(Cl)c(C(N)=O)n1Cc1ccc2oc(-c3ccccc3-c3nn[nH]n3)c(Br)c2c1
The pKB of the first is higher: 9.2 for the first, 9 for the second.

First: CCCCc1nc(Cl)c(C(=O)O)n1Cc1ccc2oc(-c3ccccc3-c3nnnn3C)c(Br)c2c1
Second: CCCCc1nc(Cl)c(C(=O)O)n1Cc1ccc2oc(-c3ccccc3-c3nnn(C)n3)c(Br)c2c1
The pKB of the first is higher: 7.3 for the first, 6.4 for the second.

Going from `CCCCc1nc(Cl)c(C(=O)O)n1Cc1ccc2oc(-c3ccccc3NS(=O)(=O)C(F)(F)F)c(Br)c2c1` to `CCCCc1nc(Cl)c(C(=O)O)n1Cc1ccc2oc(-c3ccccc3C(N)=O)c(Br)c2c1`, the pKB falls from 7.8 to 7.2.

Going from `CCCCc1nc(Cl)c(C(=O)O)n1Cc1ccc2oc(-c3ccccc3-c3nn[nH]n3)c(C(C)(C)C)c2c1` to `CCCCc1nc(Cl)c(C(=O)O)n1Cc1ccc2oc(-c3ccccc3-c3nn[nH]n3)c(C(F)(F)F)c2c1`, the pKB rises from 8.3 to 10.

First: CCCCc1nc(Cl)c(C(=O)O)n1Cc1ccc2oc(-c3ccccc3C(=O)OCC)c(Br)c2c1
Second: CCCCc1nc(Cl)c(C(=O)O)n1Cc1ccc2oc(-c3ccccc3C#N)c(Br)c2c1
The pKB of the first is higher: 7.8 for the first, < 6 for the second.

Going from `CCCCc1nc(Cl)c(C(=O)N(C)C)n1Cc1ccc2oc(-c3ccccc3-c3nn[nH]n3)c(Br)c2c1` to `CCCCc1nc(Cl)c(C(=O)OCC)n1Cc1ccc2oc(-c3ccccc3-c3nn[nH]n3)c(Br)c2c1`, the pKB falls from 8.8 to 8.3.

Compared with `CCCCc1nc(Cl)c(CC(=O)O)n1Cc1ccc2oc(-c3ccccc3-c3nn[nH]n3)c(Br)c2c1`, `CCCCc1nc(Cl)c(CNC(N)=O)n1Cc1ccc2oc(-c3ccccc3-c3nn[nH]n3)c(Br)c2c1` is lower in pKB: 9.8 for the first, 8.8 for the second.

First: CCCCc1nc(Cl)c(C(=O)O)n1Cc1ccc2oc(-c3ccccc3-c3nn[nH]n3)c(Cl)c2c1
Second: CCCCc1nc(Cl)c(C(=O)O)n1Cc1ccc2oc(-c3ccccc3-c3nn[nH]n3)c(OC)c2c1
The pKB of the first is higher: 10.5 for the first, 9.6 for the second.

For `CCCCc1nc(Cl)c(C(=O)O)n1Cc1ccc2oc(-c3ccccc3C(=O)Nc3nn[nH]n3)c(Br)c2c1`, the pKB was 8.8.
